Here are results for 14 compounds from patent US8461107B2 (Merck Sharp & Dohme Corp., priority 2008, dated 2013).

pKi: −log10 of the molar value.

The target in this test is T1, HCV genotype 1b (BK) NS3 modified with a R155K mutation (Hepatitis C virus genotype 1b, UniProt P26663, R1181K).
T1 construct: HCV genotype 1b (BK) NS3 modified with a R155K mutation
Put plainly: HCV NS3 protease time-resolved fluorescence (TRF) assay, NS3 protease 1b R155K Ki activity. The test is classed as biochemical. As to conditions: HCV genotype 1b (BK) NS3 with R155K mutation; TRF peptide substrate 100 nM; Ki derived from IC50. The essentials: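 Pre-incubation of NS3/NS4A protease (genotype 1b BK, R155K) with inhibitor for 30 min, then 1 h at room temperature with 100 nM TRF peptide substrate in pH 7.5 HEPES buffer with 10 mM DTT. Reaction quenched with pH 5.5 MES; time-resolved fluorescence read (ex 340/em 615 nm). Ki derived from four-parameter IC50 fit via IC50=Ki(1+[S]/KM).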
By pKi is commonly meant the Ki on a negative log10 scale, so that one unit is a factor of ten. Regarding `C=C[C@@H]1C[C@]1(NC(=O)[C@@H]1C[C@@H]2CN1C(=O)[C@H](C1CCCC1)NC(=O)O[C@@H]1CCC[C@H]1C/C=C/CCn1c(cc3cc(OC)ccc3c1=O)O2)C(=O)NS(=O)(=O)C1CC1` [(3aR,7S,10S,12R,23E,25aS)-7-cyclopentyl-N-((1R,2S)-1-{[(cyclopropylsulfonyl)amino]carbonyl}-2-vinylcyclopropyl)-16-methoxy-5,8,19-trioxo-1,2,3,3a,5,6,7,8,11,12,21,22,25,25a-tetradecahydro-10H,19H-9,12-methanocyclopenta[18,19][1,10,3,6,12]dioxatriazacyclononadecino[12,11-b]isoquinoline-10-carboxamide], the pKi is > 10.00.

Compound `C=C[C@@H]1C[C@]1(NC(=O)[C@@H]1C[C@@H]2CN1C(=O)[C@H](C1CCCC1)NC(=O)O[C@@H]1CCC[C@H]1C/C=C/CCn1c(cc3ccc(F)cc3c1=O)O2)C(=O)NS(=O)(=O)C1CC1` [(3aR,7S,10S,12R,23E,25aS)-7-cyclopentyl-N-((1R,2S)-1-{[(cyclopropylsulfonyl)amino]carbonyl}-2-vinylcyclopropyl)-17-fluoro-5,8,19-trioxo-1,2,3,3a,5,6,7,8,11,12,21,22,25,25a-tetradecahydro-10H,19H-9,12-methanocyclopenta[18,19][1,10,3,6,12]dioxatriazacyclononadecino[12,11-b]isoquinoline-10-carboxamide] gave a pKi of 9.30 to 10.00.

On to `CC[C@@H]1C[C@]1(NC(=O)[C@@H]1C[C@@H]2CN1C(=O)[C@H](C(C)(C)C)NC(=O)O[C@@H]1CCC[C@H]1C/C=C/CCn1c(cc3cc(Cl)ccc3c1=O)O2)C(=O)NS(=O)(=O)C1CC1` [(3aR,7S,10S,12R,23E,25aS)-7-tert-butyl-16-chloro-N-((1R,2R)-1-{[(cyclopropylsulfonyl)amino]carbonyl}-2-ethylcyclopropyl)-5,8,19-trioxo-1,2,3,3a,5,6,7,8,11,12,21,22,25,25a-tetradecahydro-10H,19H-9,12-methanocyclopenta[18,19][1,10,3,6,12]dioxatriazacyclononadecino[12,11-b]isoquinoline-10-carboxamide], for which the pKi is 9.30 to 10.00.

Consider `C=C[C@@H]1C[C@]1(NC(=O)[C@@H]1C[C@@H]2CN1C(=O)[C@H](C(C)(C)C)NC(=O)O[C@@H]1CCC[C@H]1C/C=C/CCn1c(cc3cc(Cl)ccc3c1=O)O2)C(=O)NS(=O)(=O)C1CC1` [(3aR,7S,10S,12R,23E,25aS)-7-tert-butyl-16-chloro-N-((1R,2S)-1-{[(cyclopropylsulfonyl)amino]carbonyl}-2-vinylcyclopropyl)-5,8,19-trioxo-1,2,3,3a,5,6,7,8,11,12,21,22,25,25a-tetradecahydro-10H,19H-9,12-methanocyclopenta[18,19][1,10,3,6,12]dioxatriazacyclononadecino[12,11-b]isoquinoline-10-carboxamide], for which the pKi was > 10.00.

As to `C=C[C@@H]1C[C@]1(NC(=O)[C@@H]1C[C@@H]2CN1C(=O)[C@H](C(C)(C)C)NC(=O)O[C@@H]1CCC[C@H]1C/C=C/CCn1c(cc3ccccc3c1=O)O2)C(=O)NS(=O)(=O)C1CC1` [(3aR,7S,10S,12R,23E,25aS)-7-tert-butyl-N-((1R,2S)-1-{[(cyclopropylsulfonyl)amino]carbonyl}-2-vinylcyclopropyl)-5,8,19-trioxo-1,2,3,3a,5,6,7,8,11,12,21,22,25,25a-tetradecahydro-10H,19H-9,12-methanocyclopenta[18,19][1,10,3,6,12]dioxatriazacyclononadecino[12,11-b]isoquinoline-10-carboxamide], the pKi was > 10.00.

For the compound `C=C[C@@H]1C[C@]1(NC(=O)[C@@H]1C[C@@H]2CN1C(=O)[C@H](C(C)(C)C)NC(=O)O[C@@H]1CCC[C@H]1C/C=C/CCn1c(cc3cc(OC)ccc3c1=O)O2)C(=O)NS(=O)(=O)C1CC1` [(3aR,7S,10S,12R,23E,25aS)-7-tert-butyl-N-((1R,2S)-1-{[(cyclopropylsulfonyl)amino]carbonyl}-2-vinylcyclopropyl)-16-methoxy-5,8,19-trioxo-1,2,3,3a,5,6,7,8,11,12,21,22,25,25a-tetradecahydro-10H,19H-9,12-methanocyclopenta[18,19][1,10,3,6,12]dioxatriazacyclononadecino[12,11-b]isoquinoline-10-carboxamide], the pKi was 9.30 to 10.00.

`CC[C@@H]1C[C@]1(NC(=O)[C@@H]1C[C@@H]2CN1C(=O)[C@H](C1CCCCC1)NC(=O)O[C@@H]1CCC[C@H]1C/C=C/CCn1c(cc3cc(Cl)ccc3c1=O)O2)C(=O)NS(=O)(=O)C1CC1` [(3aR,7S,10S,12R,23E,25aS)-16-chloro-7-cyclohexyl-N-((1R,2R)-1-{[(cyclopropylsulfonyl)amino]carbonyl}-2-ethylcyclopropyl)-5,8,19-trioxo-1,2,3,3a,5,6,7,8,11,12,21,22,25,25a-tetradecahydro-10H,19H-9,12-methanocyclopenta[18,19][1,10,3,6,12]dioxatriazacyclononadecino[12,11-b]isoquinoline-10-carboxamide]: the pKi is 9.30 to 10.00.

Consider `C=C[C@@H]1C[C@]1(NC(=O)[C@@H]1C[C@@H]2CN1C(=O)[C@H](C1CCCCC1)NC(=O)O[C@@H]1CCC[C@H]1C/C=C/CCn1c(cc3cc(Cl)ccc3c1=O)O2)C(=O)NS(=O)(=O)C1CC1` [(3aR,7S,10S,12R,23E,25aS)-16-chloro-7-cyclohexyl-N-((1R,2S)-1-{[(cyclopropylsulfonyl)amino]carbonyl}-2-vinylcyclopropyl)-5,8,19-trioxo-1,2,3,3a,5,6,7,8,11,12,21,22,25,25a-tetradecahydro-10H,19H-9,12-methanocyclopenta[18,19][1,10,3,6,12]dioxatriazacyclononadecino[12,11-b]isoquinoline-10-carboxamide], for which the negative-log Ki (pKi) was > 10.00.

For `C=C[C@@H]1C[C@]1(NC(=O)[C@@H]1C[C@@H]2CN1C(=O)[C@H](C1CCCC1)NC(=O)O[C@@H]1CCC[C@H]1C/C=C/CCn1c(cc3cc(Cl)ccc3c1=O)O2)C(=O)NS(=O)(=O)C1CC1` [(3aR,7S,10S,12R,23E,25aS)-16-chloro-7-cyclopentyl-N-((1R,2S)-1-{[(cyclopropylsulfonyl)amino]carbonyl}-2-vinylcyclopropyl)-5,8,19-trioxo-1,2,3,3a,5,6,7,8,11,12,21,22,25,25a-tetradecahydro-10H,19H-9,12-methanocyclopenta[18,19][1,10,3,6,12]dioxatriazacyclononadecino[12,11-b]isoquinoline-10-carboxamide], the pKi was > 10.00.

In the case of `CC[C@@H]1C[C@]1(NC(=O)[C@@H]1C[C@@H]2CN1C(=O)[C@H](C1CCCC1)NC(=O)O[C@@H]1CCC[C@H]1CCCCCn1c(nc3ccccc3c1=O)O2)C(=O)NS(=O)(=O)C1CC1` [(3aR,7S,10S,12R,25aR)-7-cyclopentyl-N-((1R,2R)-1-{[(cyclopropylsulfonyl)amino]carbonyl}-2-ethylcyclopropyl)-5,8,19-trioxo-1,2,3,3a,5,6,7,8,11,12,21,22,23,24,25,25a-hexadecahydro-10H,19H-9,12-methanocyclopenta[18,19][1,10,3,6,12]dioxatriazacyclononadecino[11,12-b]quinazoline-10-carboxamide], the pKi was 9.30 to 10.00.

Consider `CC[C@@H]1C[C@]1(NC(=O)[C@@H]1C[C@@H]2CN1C(=O)[C@H](C1CCCC1)NC(=O)O[C@@H]1CCC[C@H]1CCCCCn1c(cc3ccccc3c1=O)O2)C(=O)NS(=O)(=O)C1CC1` [(3aR,7S,10S,12R,25aR)-7-cyclopentyl-N-((1R,2R)-1-{[(cyclopropylsulfonyl)amino]carbonyl}-2-ethylcyclopropyl)-5,8,19-trioxo-1,2,3,3a,5,6,7,8,11,12,21,22,23,24,25,25a-hexadecahydro-10H,19H-9,12-methanocyclopenta[18,19][1,10,3,6,12]dioxatriazacyclononadecino[12,11-b]isoquinoline-10-carboxamide], for which the pKi was 9.30 to 10.00.

`CC[C@@H]1C[C@]1(NC(=O)[C@@H]1C[C@@H]2CN1C(=O)[C@H](C1CCCC1)NC(=O)O[C@@H]1CCC[C@H]1CCCCCn1c(nc3cc(-c4ccccc4)ccc3c1=O)O2)C(=O)NS(=O)(=O)C1CC1` [(3aR,7S,10S,12R,25aR)-7-cyclopentyl-N-((1R,2R)-1-{[(cyclopropylsulfonyl)amino]carbonyl}-2-ethylcyclopropyl)-5,8,19-trioxo-16-phenyl-1,2,3,3a,5,6,7,8,11,12,21,22,23,24,25,25a-hexadecahydro-10H,19H-9,12-methanocyclopenta[18,19][1,10,3,6,12]dioxatriazacyclononadecino[11,12-b]quinazoline-10-carboxamide] gave a pKi of 9.30 to 10.00.

The compound `CC[C@@H]1C[C@]1(NC(=O)[C@@H]1C[C@@H]2CN1C(=O)[C@H](C1CCCC1)NC(=O)O[C@@H]1CCC[C@H]1CCCCCn1c(nc3cc(OC)ccc3c1=O)O2)C(=O)NS(=O)(=O)C1CC1` [(3aR,7S,10S,12R,25aR)-7-cyclopentyl-N-((1R,2R)-1-{[(cyclopropylsulfonyl)amino]carbonyl}-2-ethylcyclopropyl)-16-methoxy-5,8,19-trioxo-1,2,3,3a,5,6,7,8,11,12,21,22,23,24,25,25a-hexadecahydro-10H,19H-9,12-methanocyclopenta[18,19][1,10,3,6,12]dioxatriazacyclononadecino[11,12-b]quinazoline-10-carboxamide] gave a pKi of 9.30 to 10.00.

The compound `CC[C@@H]1C[C@]1(NC(=O)[C@@H]1C[C@@H]2CN1C(=O)[C@H](C1CCCC1)NC(=O)O[C@@H]1CCC[C@H]1CCCCCn1c(cc3cc(OC)ccc3c1=O)O2)C(=O)NS(=O)(=O)C1CC1` [(3aR,7S,10S,12R,25aR)-7-cyclopentyl-N-((1R,2R)-1-{[(cyclopropylsulfonyl)amino]carbonyl}-2-ethylcyclopropyl)-16-methoxy-5,8,19-trioxo-1,2,3,3a,5,6,7,8,11,12,21,22,23,24,25,25a-hexadecahydro-10H,19H-9,12-methanocyclopenta[18,19][1,10,3,6,12]dioxatriazacyclononadecino[12,11-b]isoquinoline-10-carboxamide] had a pKi of 9.30 to 10.00.
